Results taken from publication PMC9916441, “Resveratrol Derivative Exhibits Marked Antiproliferative Actions, Affecting Stemness in Pancreatic Cancer Cells” (International Journal of Molecular Sciences, 2023).
Read-outs that look alike come from different tables or passages of the source.

Assays:
PAMPA-GI permeability = assay type: in vitro ADME; conditions: for Papp at 16 h, 500 µM: PAMPA, 16 h incubation, read-out: Permeability, Pe
Method: A PAMPA was used to evaluate the passive intestinal absorption of DF5. The system consisted in a 96-well, MultiScreen-IP PAMPA filter plate (donor plate) equipped with a PVDF membrane filter and a 96-well PTFE acceptor plate. The PVDF membrane was coated with 5 µL of a 2% w/v lecithin in n-dodecane solution. […] Donor and acceptor solutions, both containing 5% of DMSO v/v%, were employed to avoid precipitation of the drug. The system was assembled placing the drug-filled donor plate into the acceptor plate and incubated at room temperature for 16 h. Each solution was analyzed using HPLC and the permeability (Pe, nm/s) was determined as previously reported.

[1] = Human plasma stability assay; assay type: in vitro ADME; conditions: 80% human plasma, 37 °C
Method: The in vitro enzymatic stabilities of DF5 were assessed in human plasma and simulated gastric and intestinal fluids (SGF and SIF, respectively). For the human plasma stability assay, 10 μL of a 10^-4 M stock solution of DF5 in acetonitrile was added to a pre-heated (37 °C) plasma fraction and diluted with phosphate buffer (pH 7.4, 0.02 M) to obtain a final volume of 1 mL (80% plasma). The samples (50 µL) were extracted at various times and 200 µL of cold acetonitrile containing 0.5% v/v of formic acid were employed to stop the enzymatic reaction. After centrifugation for 10 min at 5000 g, the supernatant was removed and analyzed using HPLC [57].

AsPC-1 [2] = test: Colony formation assay; assay type: cell-based, human; conditions: AsPC-1, 20 µM, 72 h treatment
Method: (§1) A colony formation assay was performed as previously described. Briefly, the PC cells were seeded in 6-well plates, incubated for 24 h, and then treated for 72 h with 20 μM DF5, DF12, and RSV or with vehicle (DMSO) as indicated. After 4 days, following methanol fixation and crystal violet staining, the colonies of at least 30 cells were counted.

Capan-2 [3] = test: Colony formation assay; assay type: cell-based, human; conditions: Capan-2, 20 µM, 72 h treatment
Method: as §1

AsPC-1 [4] = test: MTT cell viability assay; assay type: cell-based, human
Method: (§2) The cell viability was assessed using MTT assay, as previously described. Briefly, the cells were seeded in 96-well plates (4 × 10^3 cells/well) and were treated for 72 h with different concentrations of RSV, DF5, and DF12. The IC50 values were extrapolated from dose–response curves and calculated using the CompuSyn software (https://www.combosyn.com/). The selectivity index (SI) values were calculated as ratios between the IC50 values of compounds in normal HFF-1 fibroblast cells and the IC50 values of the same compounds in the PC cell lines.

Capan-2 [5] = test: MTT cell viability assay; assay type: cell-based, human
Method: as §2

BxPC-3 = test: MTT cell viability assay; assay type: cell-based, human
Method: as §2

## Cc1ccc(/C=C/c2ccc(O)cc2)cc1 [DF5]
PAMPA-GI permeability; pH 5 (donor and acceptor)
  Papp at 16 h, 500 µM: 6.02 ×10⁻⁶ cm/s
PAMPA-GI permeability; pH 6.5 (donor and acceptor)
  Papp at 16 h, 500 µM: 9 ×10⁻⁶ cm/s
PAMPA-GI permeability; pH 7.4 (donor and acceptor)
  Papp at 16 h, 500 µM: 2.59 ×10⁻⁶ cm/s
PAMPA-GI permeability; pH 5
  Classification (GI permeation): Pe+ (Pe+ (indicative of high GI permeation): Pe (nm s^−1) > 10)
PAMPA-GI permeability; pH 6.5
  Classification (GI permeation): Pe+ (Pe+ (indicative of high GI permeation): Pe (nm s^−1) > 10)
PAMPA-GI permeability; pH 7.4
  Classification (GI permeation): Pe+ (Pe+ (indicative of high GI permeation): Pe (nm s^−1) > 10)
[1]
  stability in human plasma: stable (stable: RD% < 5%)
AsPC-1 [2]
  effect on clonogenicity (colony formation): totally abolish colony formation
Capan-2 [3]
  effect on clonogenicity (colony formation): more drastic, prominent, and consistent effects on PC cell clonogenicity
AsPC-1 [4]; Homo sapiens, ASPC1, AsPC-1, MTT, 72 h
  IC50: 14.7 µM
AsPC-1 [4]; SI = IC50 on normal HFF-1 fibroblast cells/IC50 on AsPC-1
  Selectivity Index (SI) AsPC-1: > 6.79
Capan-2 [5]; Capan-2, MTT, 100 µM
  effect on cell viability at maximum tested concentration: almost complete loss of cell viability
Capan-2 [5]; Homo sapiens, Capan-2, MTT, 72 h
  IC50: 27.8 µM
Capan-2 [5]; SI = IC50 on normal HFF-1 fibroblast cells/IC50 on Capan-2
  Selectivity Index (SI) Capan-2: > 3.60
BxPC-3; Homo sapiens, BxPC-3, MTT, 72 h
  IC50: 22.7 µM
BxPC-3; SI = IC50 on normal HFF-1 fibroblast cells/IC50 on BxPC-3
  Selectivity Index (SI) BxPC-3: > 4.41
